Test results published in patent publication US20140350097A1, “TREATMENT OF HYPOTENSION ASSOCIATED WITH HEMODIALYSIS” (priority 2013, published 2014).

Experiments:
Sprague-Dawley rats = assay: 14-day infusion toxicity in Sprague-Dawley rats; format: in vivo
Procedure: The safety profile of NOX-100 was further evaluated in Sprague-Dawley rats (10/sex/group for the main study and 24/sex/group for the satellite groups for plasma concentration determination). Rats were administered with NOX-100 at 0, 100, 500 or 2000 mg/kg/day by infusion over a period of 8 hours for 14 days.
The dose of 100 mg/kg/day is considered the no-effect-level in rats.

mice = assay: Blood pressure studies in mice; format: in vivo
Source text: The lack of effect on normal blood pressure is advantageous for NOX-100 as a small molecule .NO scavenger.

[1] = test system: subjects with hypotensive episodes during hemodialysis; assay: Human clinical dose escalation study in hemodialysis subjects with hypotensive episodes; format: in vivo
Source text: In that study, the drug was given to subjects who had at least 3 hypotensive episodes during hemodialysis in the prior month. Subjects received the drug during hemodialysis when systolic blood pressure (SBP) had fallen at least 15 mmHg. The following trends appeared between drug and placebo periods. […] The SBP over this time period averaged 4 mmHg higher for drug than for placebo with a standard deviation of 16 mmHg. […] As hypotension worsened, the patients developed several different symptoms that were not predictable for any given patient. Clinical interventions intended to relieve hypotension were also variable and were applied at inconsistent times from patient to patient. This was a result of long standing practices established by patient and nurse to avoid severe symptoms. For example, patients would sometimes request an intervention that they thought would be helpful and nurses would sometimes institute an intervention when they thought that a blood pressure trend might soon lead to symptoms. It was felt unethical to intervene in this process, since the aim was to avoid patient discomfort.

albino rats = assay: Single dose infusion toxicity in albino rats; format: in vivo; conditions: single dose 1000, 1450 or 2000 mg/kg infused over 2 or 8 hours
Procedure: Based on the preliminary I.V. and S.C. studies, doses of 1000, 1450 or 2000 mg/kg of NOX-100 administered over an 8-hour period were tested in albino rats. A total dose of 2000 mg/kg administered over a shorter period of 2 hours was then tested.

Wistar rats = assay: Endotoxin (LPS)-induced shock in Wistar rats; format: in vivo, rat
Source text: For example, in Wistar rats, shock induced by endotoxin such as LPS (lipopolysaccharide from Salmonella typhosa) is accompanied by severe hypotension, as well known in the art. […] In addition, the survival rate was increased by NOX-100.
Bacterial translocation across damaged intestinal epithelium into the circulation occurs in rats during endotoxin-induced shock, as evidenced by positive bacterial cultures grown from blood, mesenteric lymph nodes, spleen, or liver obtained after LPS challenge.
Moreover, in the rat shock model, liver injury occurs as a result of hypoperfusion and Kupffer cell activation with the release of cytokines by LPS.

beagle dogs = assay: 1 or 4 day infusion toxicity in beagle dogs; format: in vivo, dog
Crj:CD(SD)IGS rats (SPF) = assay: Four-week repeated dose intravenous toxicity study in rats with two-week recovery; format: in vivo, rat
Procedure: The objective of this study was to investigate the toxicity of NOX-100 when administered as a single intravenous injection once daily for four consecutive weeks to Sprague-Dawley (SPF) rats and to determine the reversibility of changes which were established as treatment related.
NOX-100 was administered intravenously as a daily single dose (“pulse”) (40 mL/kg) at doses of 100, 500, and 2000 mg/kg/day for four weeks in Crj:CD(SD)IGS rats (SPF). The Control group was treated with saline (n=60 rats per gender−balanced randomization across all groups.) Following termination of treatment, an additional group of rats in the Control and highest dose group were held for a period of two weeks in order determine if the potential treatment related changes were reversible.

[2] = Water solubility and isotonicity of Sodium MGD; format: physicochemical
Procedure: Sodium MGD is a white to slightly yellowish powder with 1.5 molecules of co-crystallized water, and is water soluble up to 35% w/v at approximately 25° C. A 4.5% (w/v) solution of the Sodium MGD in water without any additives affords a near isotonic solution.

[3] = Pharmacokinetics after bolus administration in hemodialysis subjects; format: in vivo, human
Source text: FIG. 1 depicts the results of plasma Cmax of NOX-100 after bolus administration in hemodialysis subjects as a function of dose. See Example 4.
FIG. 2 depicts the results of Area Under the Curve (AUC) of NOX-100 after bolus administration in hemodialysis subjects as a function of dose. See Example 4.
FIG. 3 depicts a histogram of plasma clearance of NOX-100 during dialysis after bolus administration in hemodialysis subject as a function of dose. Legend (x-axis, left to right): 0.33, 1, 3, 9, 25 and 50, mg/kg NOX-100. See Example 4.

[4] = females, 500 mg/kg/day, 14 days

## CN(C[C@H](O)[C@@H](O)[C@H](O)[C@H](O)CO)C(=S)S [NOX-100, N-methyl-D-glucamine dithiocarbamate]
Sprague-Dawley rats; 2000 mg/kg/day, 14 days
  microscopic findings in urinary bladder and duodenum: hyperplasia of the urinary bladder and increased mitotic figures and dilatation of lymphatic vessels in the duodenum
Sprague-Dawley rats; 8-hour infusion, 14 days
  clinical chemistry, urinary output and kidney weight changes: Elevations in blood urea nitrogen and creatinine, increases in urinary output and kidney weights
  clinical signs of salivation: noted mostly at 2000 mg/kg/day and occasionally in the lower dose groups
  microscopic changes in the kidney: tubular epithelial basophilia, pyelitis at the papillary tip and hyperplasia of the pelvic transitional epithelium
Sprague-Dawley rats; 100, 500 or 2000 mg/kg/day, 8-hour infusion, 14 days
  treatment related deaths: no treatment related deaths
Sprague-Dawley rats; 100-2000 mg/kg/day
  dose concentration relationship: proportional dose concentration relationship
Sprague-Dawley rats; each day
  mean plasma concentrations between 4 to 7.75 hours from the start of infusion: remained constant
Sprague-Dawley rats; [4]
  kidney weights: increased
  microscopic changes (kidney): only seen in one rat
Sprague-Dawley rats; rat, in vivo
  mean plasma concentrations between Days 1, 7 and 14: similar
  mean steady state plasma concentrations, males versus females: no differences
Sprague-Dawley rats; rats, 8-hour infusion, 14 days
  no-effect-level: 100 mg/kg/day
Sprague-Dawley rats; rats, doses of up to 2000 mg/kg/day, 14 consecutive days
  observable toxicity: little observable toxicity
mice; co-administration with sodium nitroprusside (.NO donor)
  effect on hypotensive effect of nitroprusside: reduced the hypotensive effect of nitroprusside
mice; intravenous infusion of NOX-100 alone
  effect on blood pressure: did not affect blood pressure
[1]; 7 dose escalations, 4 subjects per group
  clinically significant toxicity: did not reveal any clinically significant toxicity at any dose
[1]; 30 to 120 minutes following drug administration, standard deviation 16 mmHg
  average SBP difference, drug higher than placebo: 4 mmHg
[1]; hemodialysis subjects
  heart rate, diastolic blood pressure, number of interventions for low blood pressure or number of symptoms, drug versus placebo periods: no apparent differences
[1]; three highest doses, 30 to 120 minutes following drug administration
  systolic blood pressure (SBP), drug versus placebo: trend for SBP to be higher after drug than after placebo
Albino rats
  mortality: no mortality
Wistar rats; Wistar rats, LPS shock
  survival rate: increased
Wistar rats; Wistar rats, dose 0.3 mmol/kg
  LPS shock hypotension: gradually reversed towards normal blood pressure levels
Wistar rats; rat shock model, 200 mg/kg/day
  plasma indices of liver injury (ornithine carbamoyltransferase, aspartate transaminase, fibrinogen): all significantly reduced
Wistar rats; rats, endotoxin-induced shock, prior infusion 200 mg/kg/day
  reduction of bacterial translocation: about 70%
Beagle dogs; 2000 mg/kg/day
  pathological findings: thickening of the duodenal wall and tubular dilatation of the kidney with basophilia in the cortex and vacuolation in the areas of cortical tubules
Beagle dogs; 500-2000 mg/kg/day, 8-hour infusion, 1 or 4 days
  body weight and food consumption: decreased
Beagle dogs; 2 hours from the start of infusion, males and females
  plasma concentrations on Day 4 compared to Day 1: apparent increases
Beagle dogs; dogs
  doses at which signs of adverse effects were first observed: 500 to 2000 mg/kg/day
Crj:CD(SD)IGS rats (SPF); rat, in vivo
  food consumption or body weight gain versus Control: no significant differences
  ophthalmological examinations: No changes
  reversibility after a two week period of bladder mucosal hyperplasia, proximal tubule basophilia and renal papillary edema: could not be confirmed
  reversibility of urinary bladder change: no clear-cut reversibility
Crj:CD(SD)IGS rats (SPF); rat, in vivo, 2000 mg/kg
  blood sodium, chloride and albumin: increased
  cholesterol level: increased
  hemoglobin: decrease
Crj:CD(SD)IGS rats (SPF); rats, daily single i.v. dose, four weeks
  no adverse effect level: 100 mg/kg
[2]; approximately 25° C.
  water solubility: up to 35 % w/v
[2]; in water without any additives
  concentration of solution in water that is near isotonic: 4.5 % (w/v)
[3]; 0.33-50 mg/kg, FIG. 3
  plasma clearance during dialysis versus dose: decreased slightly with higher doses but the difference was not statistically significant
[3]; bolus administration, hemodialysis subjects, FIG. 1
  plasma Cmax versus dose: proportional to the dose
[3]; bolus administration, hemodialysis subjects, FIG. 2
  Area Under the Curve (AUC) versus dose: proportional to the dose
[3]; human, plasma, intravenous, averaged clearance from the 1, 9, and 50 mg/kg cohorts, read-out: plasma clearance during dialysis
  clearance: ~3.3 mL/min/kg
